# Source: patent publication US20060264442A1, “Methods for the treatment of ocular and neurodegenerative conditions in a mammal” (Allergan, Inc., priority 2005, published 2006)
# How the values were obtained:
# retinal ganglion cells [1] = experiment: Partial optic nerve (ON) injury model, retinal ganglion cell count; assay type: in vivo, Sprague Dawley rats; settings: for RGC survival / protective effect: count at twelve days
# Procedure: (§1) All procedures were conducted following AACUC protocols. Rats were anesthetized by intramuscular administration of Ketamine/Xylazine/Acepromazine/Saline cocktail, 5/2.5/1/1.5, milliliters respectively, at 1 ml/Kg.
# Sprague Dawley rats weighing 300-350 g were used in this experiment. They were anesthetized with the above anesthetic cocktail and ON injury was applied. […] The tissues around the optic nerve were kept away from the optic nerve using jaw opening forceps. Calibrated forceps was put around the nerve about 3 to 4 mm from the globe and held for 30 seconds. The forceps were then removed, and the eyes treated with topical antibiotics at the site of incision. Drugs were then administered at selected doses via IP. Control animals received vehicle.
# (§2) The effect of ON injury and elevated IOP on ganglion cells was determined by evaluating ganglion cell loss in whole mounted retinas. At the end of twelve days for ON injured and three months for COHT animals the ganglion cells were labeled by retrograde transport of Dextran Tetramethyl Rhodamine (DTMR, Molecular Probes, OR). […] A longitudinal cut (<1 mm) was made at about 3-4 mm distal from the globe. The optic nerve was sectioned and DTMR crystals were applied at the cut end. Twenty four hours after labeling the animals were euthanized and the eyes enucleated and fixed for 2 hours with 4% paraformaldehyde, then the retinas were removed and whole mounted. Cell counts were done using a Nikon microscope under fluorescent light with Rhodamine filter at 400×. Eight to sixteen regions were counted. Ganglion cell loss was calculated as percentage loss compared to unlasered control. Percent protection was calculated by comparing drug treated to vehicle treated eyes. Statistical analysis was done using two-tail student's t-test.
# retinal ganglion cells [2] = experiment: COHT model, retinal ganglion cell count; assay type: in vivo, Wistar rats
# Procedure: (§3) Wistar rats weighing 400-475 grams were used. The rats were anesthetized and ocular hypertension was induced by laser photocoagulation of the outflow pathway (mainly episcleral and limbal veins) using a Coherent Argon Laser (Coherent Novus 2000). The number of spots was approximately 150 after two laser treatments with one week interval. IOP was measured using Tono-Pen XL (Mentor O&O). Measurements were done prior to laser treatments to determine baseline and subsequent readings were done weekly.
# as §2
# [3] = Chronic ocular hypertension (COHT) model, IOP measurement; assay type: in vivo, Wistar rats; settings: topical 0.015% twice a day for 90 days, compared to vehicle treated eyes
# Procedure: as §1, §3
# In this model prazosin was tested after topical application of 0.015% twice a day for 90 days. […] The IOP level reached a steady state after 40 days and it was maintained for the rest of the experimental period.
# [4] = COHT model, ERG evaluation of retinal function; assay type: in vivo, Wistar rats; settings: topical 0.015% twice a day, at the end of 90 days
# Procedure: as §3
# Electroretinographic evaluation of the retina was done only to OHT animals. The retinal function was measured 90 days after first laser treatment and prior retinal labeling. LKC system was used with the following parameters: low and high cut filters 0.3 and 500 Hz respectively, number of runs per sample were 10, flash intensity was −30, −20, −10 and −4 dB, Notch filter was off. Data analysis including OP's extraction from flash ERG was done using the system's software and noise was filtered prior calculation. Data represents the average of 5 animals.
# At the end of 90 days retinal function was measured using electroretinography (ERG). […] Similarly the oscillatory potential responses were also preserved by prazosin treatment (FIG. 6).
compound,measurement,setting,value
"COc1ccccc1N1CCN(CCCNc2c(C)c(=O)n(C)c(=O)n2C)CC1 [5-methyl-Urapedil, 5-methylurapadil]",RGC survival / protective effect,retinal ganglion cells [1]; 10 μg/kg IP,no protective effect
"Brc1c(NC2=NCCN2)ccc2nccnc12 [Brimonidine, brimonidine]",RGC survival / protective effect,retinal ganglion cells [1]; 100 μg/kg IP,protective action of Prazosine is similar to that of Brimonidine
same,RGC protection in COHT model (comparison in words),retinal ganglion cells [2]; dose not given,comparable to what we have observed with Brimonidine
"COc1cc2nc(N3CCN(C(=O)c4ccco4)CC3)nc(N)c2cc1OC [Prazosine, prazosin]",Elevation of IOP,[3],attenuated the elevation of IOP
same,RGC survival / protective effect,retinal ganglion cells [1]; 10 μg/kg IP,almost two fold increase in RGC survival
same,Protection of RGC compared to vehicle treated group,"retinal ganglion cells [2]; 0.015% topical, three months of IOP elevation",46%
same,RGC decrease,"retinal ganglion cells [2]; 0.015% topical, three months of IOP elevation, loss compared to unlasered control",20%
same,ERG A and B wave amplitudes,[4],In vehicle treated animals both A and B wave amplitudes were smaller than those treated with prazosin
same,Oscillatory potential responses,[4],preserved
"COc1cc2nc(N3CCN(C(=O)C4CCCO4)CC3)nc(N)c2cc1OC (stereo not drawn) [Terazosine, terazosin]",RGC protection,retinal ganglion cells [1]; 0.1 μg/kg IP,Protection was observed
same,RGC protection,retinal ganglion cells [1]; 1.0 μg/kg IP,maximum effect
same,RGC survival / protective effect,retinal ganglion cells [1]; 10 μg/kg IP,no effect
